Here are results for 9 molecules from patent publication US20070093410A1, “Selective inhibition of proteasomes of tuberculosis and other bacteria” (President and Fellows of Harvard College, priority 2004, published 2007).

Non-standard residues stand in square brackets, D forms with d. Residues, ends and D or L forms follow the SMILES beside them. No end group written: not given here. *: point of attachment. Biotin = O=C1N[C@H]2[C@H](CS[C@H]2CCCCC(=O)*)N1; Nle = CCCC[C@H](N)C(=O)O; Cbz = O=C(OCc1ccccc1)* Bounds are passed on as bounds.

Data set [1] concerns SDS-activated 20S mammalian proteasomes. The experiment in a line: Inhibition of individual active sites of SDS-activated 20S mammalian proteasomes, fluorogenic substrates specific for each active site. The data set is classed as biochemical, rabbit. The settings on record: sites other than the one the inhibitor is specific for; FIG. 1C. How it is done: (§1) FIGS. 1A-1D depict hydrolysis of bKKQ10KK (SEQ ID NO:5) by the trypsin-like active site of the eukaryotic proteasome. A) 80 μM bKKQ10KK (SEQ ID NO:5) was incubated with mammalian (rabbit) 20S proteasomes with or without PA28αβ, 0.02% SDS. B) 35 μM bKKQ10KK (SEQ ID NO:5) was incubated with yeast wild type and ‘open-gate’ (α3ΔN) proteasomes. C) Mammalian 20S proteasomes were treated with inhibitors specific to each active site. D) After inactivation, the proteasomes were further incubated with bKKQ10KK (SEQ ID NO:5).
(§2) To identify which active site of the proteasome cleaved after bKKQ, inhibitors that selectively block the individual active sites were used. SDS-activated 20S mammalian proteasomes were treated with the irreversible inhibitors, 4-hydroxy-5-iodo-3-nitrophenylacetyl-Leu-Leu-vinyl sulfone (NLVS); (Bogyo et al., supra, incorporated herein by reference in its entirety for all purposes), which is specific for the chymotrypsin-like site; Acetyl-Tyr-Arg-Leu-Asn-vinyl sulfone (SEQ ID NO:20) (Ac-YRLN-VS), which reacts primarily with the trypsin-like site (Nazif et al. (2001) Proc. Natl. Acad. Sci. USA 98:2967, incorporated herein by reference in its entirety for all purposes); or with the reversible inhibitor of the caspase-like site, Z-Pro-norLeu-Asp-aldehyde (Z-PnLD-CHO) (Kisselev et al. (2003) supra, incorporated herein by reference in its entirety for all purposes). The extent of inhibition of the different sites was assayed using fluorogenic substrates specific for each active site. […] After inactivation of each type of active site, the proteasomes were incubated with bKKQ10KK. […] Thus, cleavage after bKKQ was due to the activity of the trypsin-like site, presumably because of the two-lysine residues preceding the initial Q residue.

Data set [2] shares this test system. The experiment in a line: bKKQ10KK cleavage by 20S mammalian proteasomes after inactivation of each type of active site. The following applies: proteasomes pre-treated with inhibitor, then incubated with bKKQ10KK; FIG. 1D. The data set is classed as biochemical, rabbit. The protocol:
as §1, §2
For 20S proteasomes, 20 mM Hepes (pH 7.5) containing 1 mM dithiothreitol (DTT) was used. For reactions with 26S proteasomes, the buffer also contained 0.5 mM ATP and 2.5 mM MgCl2. All reactions were performed at 37° C. […] The reaction was terminated with 0.4 ml of ice-cold water and fluorescence read at 380 nm excitation and 470 nm emission. […]

The target in data set [3] is T1, archaebacterial 'open-gate' 20S proteasomes (Thermoplasma acidophilum, UniProt P28061).
T1 sequence (P28061 9-211): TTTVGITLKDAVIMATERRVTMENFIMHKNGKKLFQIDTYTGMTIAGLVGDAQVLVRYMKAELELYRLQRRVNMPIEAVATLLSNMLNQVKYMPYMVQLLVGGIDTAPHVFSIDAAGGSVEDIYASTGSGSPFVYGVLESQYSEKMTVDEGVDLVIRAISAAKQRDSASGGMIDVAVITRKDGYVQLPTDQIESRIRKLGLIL
The data set can be described thus: Hydrolysis of bKKQ20KK by archaebacterial 'open-gate' 20S proteasomes, effect of proteasome inhibitor. The data set is classed as biochemical. The settings on record: 37° C. The protocol:
(§3) FIGS. 4A-4B depict multiple cleavages within the polyQ sequence by archaebacterial proteasomes. A) bKKQ20KK (SEQ ID NO:9) (25 μM) was incubated with 0.6 μg of yeast or 250 ng of archaebacterial ‘open-gate’ 20S particles in a total volume of 50 μl. B) Products generated by the archaebacterial proteasomes were analyzed by MALDI-TOF.
(§4) 20S proteasomes of archaebacteria, e.g., Thermoplasma acidophilum, contain 14 identical active sites, which, though originally classified as “chymotrypsin-like” (Dahlmann et al. (1991) Biomed. Biochim. Acta 50:465, incorporated herein by reference in its entirety for all purposes), were later shown to cleave also after basic and acidic residues (Akopian et al., supra). These “less-specific” active sites were tested to determine if they could degrade within a polyQ sequence. […] It was determined that mutant archaebacterial proteasomes lacking this gate (Δ7α) (Benaroudj et al., supra, incorporated herein by reference in its entirety for all purposes) cleaved polyQ peptides and control peptides at least 17 fold faster than the wild-type particles. […]
(§5) For 20S proteasomes, 20 mM Hepes (pH 7.5) containing 1 mM dithiothreitol (DTT) was used. […] The reaction was terminated with 0.4 ml of ice-cold water and fluorescence read at 380 nm excitation and 470 nm emission.

Data set [4] deals with rabbit 26S proteasomes. The data set can be described thus: Peptide cleavage by 26S proteasomes (new amino groups, fluorescamine assay). The following applies: 35 μM peptide, FIG. 2. The data set is classed as biochemical. The protocol: FIG. 2 graphically depicts rapid cleavage of the flanking RRGRR (SEQ ID NO:6) in Q20RRGRR (SEQ ID NO:7) by eukaryotic proteasomes. 35 μM of each of the following peptides bKKQ10KK (SEQ ID NO:8), bKKQ20KK (SEQ ID NO:9), N-extended-KK-Q20-KK (SEQ ID NO:10), Q20RRGRR (SEQ ID NO:7) and a control 20-mer peptide […] (SEQ ID NO:12), lacking any repeat sequence were incubated with 7.2 μg of rabbit 26S particles in a total volume of 40 μl. New amino groups formed were assayed.
Although 26S proteasomes cleaved these polyQ peptides slowly and only after the initial Q residues, they cleaved a Q20 (SEQ ID NO: 30) sequence with RRGRR (SEQ ID NO:6) at its C-terminus 5 to 6-fold faster than other polyQ peptides (FIG. 2) studied and at similar rates to the 20-mer control peptide (though not as fast as YGGFLRRIRPKLK (SEQ ID NO:29), a 13-mer which is cleaved at least 2 times faster).
For 20S proteasomes, 20 mM Hepes (pH 7.5) containing 1 mM dithiothreitol (DTT) was used. For reactions with 26S proteasomes, the buffer also contained 0.5 mM ATP and 2.5 mM MgCl2. All reactions were performed at 37° C. 5 μl aliquots were withdrawn at different times, 50 μl of 0.2M sodium phosphate (pH 6.8) was added and then mixed vigorously with 50 μl fluorescamine for 3 minutes. The reaction was terminated with 0.4 ml of ice-cold water and fluorescence read at 380 nm excitation and 470 nm emission.

The test system of data set [5] is T2, bKKQ10KK (SEQ ID NO:8).
T2 sequence: KKQQQQQQQQQQKK

Data set [6] relates to T3, bKKQ20KK (SEQ ID NO:9).
T3 sequence: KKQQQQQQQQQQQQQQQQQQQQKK

In data set [7] the test system is yeast 20S proteasomes. The data set can be described thus: Hydrolysis of bKKQ10KK by yeast wild type and 'open-gate' (α3ΔN) 20S proteasomes. The format is biochemical. The settings on record: 35 μM bKKQ10KK; FIG. 1B. The protocol:
as §1
To test whether 20S proteasomes could cleave within a polyQ sequence, a peptide containing 10 Q-residues flanked at each end by two lysine residues to enhance solubility (bKKQ10KK) (SEQ ID NO:8) and biotin on the α amino group was initially used as a substrate. […] Similarly, a mutant form (α3ΔN) of the yeast proteasome with an N-terminal deletion in the α3 subunit, which causes ‘gate-opening’, hydrolyzed bKKQ10KK (SEQ ID NO:8), approximately ten-fold faster than the wild-type (FIG. 1B). Thus, entry of this peptide and its cleavage depends on the presence of an ‘open-gate’ in the α-ring. […]
as §5

The subject of data set [8] is eukaryotic proteasomes. The experiment in a line: Competitive inhibition of hydrolysis of standard fluorogenic substrates by eukaryotic proteasomes. The format is biochemical. From the text:
In contrast to eukaryotic proteasomes, the ancestral particles from the archaebacterium T. acidophilum digested polyQ peptides very rapidly and degraded completely the myoglobin-polyQ fusion protein. Unlike the eukaryotic homologs, these prokaryotic proteasomes contain 14 identical active sites of broad specificity. […] The data presented herein indicate that the trypsin-like sites can cleave after a P1 glutamine if the preceding residue at P2 is a lysine and at P3 a αN-blocked lysine. […] Thus, their failure to degrade polyQ-sequences is due to the inability of their active sites to bind the polyQ repeat, not to the proteasome's unique catalytic mechanism, which is similar in eukaryotic and archaebacterial particles.

Data set [9] deals with T1, archaebacterial 'open-gate' 20S proteasomes. The experiment in a line: Cleavage of polyQ peptides by archaebacterial 'open-gate' (Δ7α) 20S proteasomes. The format is biochemical. The settings on record: half the concentration of the yeast particles, 37° C. How it is done: as §3, §4, §5
Data set [10] has as its system bovine PA 28alpha-beta (Boston Biochem, Inc.).
Data set [11] deals with T4, Acetyl-Tyr-Arg-Leu-Asn-vinyl sulfone (SEQ ID NO:20).
T4 sequence: YRLN

For the molecule “4-hydroxy-5-iodo-3-nitrophenylacetyl-Leu-Leu-vinyl sulfone [NLVS]”, in [1], the “effect on the other two peptidase activities” value is listed as “without significantly affecting the other two”. Besides, the “reduction of bKKQ10KK cleavage” value in data set [2] is given as “no significant effect”.
As for `CC(C)C[C@@H](C=O)NC(=O)[C@H](CC(C)C)NC(=O)[C@H](CC(C)C)NC(=O)OCc1ccccc1` [MG132] (Cbz-Leu-Leu-Leu-aldehyde), the “inhibition of bKKQ20KK hydrolysis” value in data set [3] is listed as “inhibited this process”.
On to `CCCC[C@H](NC(=O)[C@@H]1CCCN1C(=O)OCc1ccccc1)C(=O)N[C@H](C=O)CC(=O)O` [Z-PnLD-CHO, Z-Pro-norLeu-Asp-aldehyde] (Cbz-Pro-[Nle]-Asp-aldehyde), for which the “effect on the other two peptidase activities” value in data set [1] is recorded as “without significantly affecting the other two”. In addition, the “reduction of bKKQ10KK cleavage” value in data set [2] is reported as “no significant effect”.
In the same order, the values of “Acetyl-Tyr-Arg-Leu-Asn-vinyl sulfone (Ac-YRLN-{vinyl sulfone}) [Ac-YRLN-VS]” are “without significantly affecting the other two” and “about 70%”.
For “Q20RRGRR: Q20 sequence with RRGRR at its C-terminus (SEQ ID NO:7) (QQQQQQQQQQQQQQQQQQQQRRGRR; Peptide generated by solid-phase peptide synthesis)”, in data set [4], the “cleavage rate relative to other polyQ peptides” value lay within 5 to 6 fold.
On to “archaebacterial 'open-gate' 20S proteasomes (delta7alpha) of Thermoplasma acidophilum”, for which the “rate of peptide cleavage against yeast 'open-gate' 20S proteasomes, 37° C.” value is “cleaved both bKKQ10KK (SEQ ID NO:8) and bKKQ20KK (SEQ ID NO:9) at least 70 times faster than the yeast ‘open-gate’ 20S proteasomes” in data set [5]; “cleaved both bKKQ10KK (SEQ ID NO:8) and bKKQ20KK (SEQ ID NO:9) at least 70 times faster than the yeast ‘open-gate’ 20S proteasomes” in data set [6].
Turning to “bKKQ10KK: peptide containing 10 Q-residues flanked at each end by two lysine residues, biotin on the α amino group (SEQ ID NO:8) (Biotin-KKQQQQQQQQQQKK)”, the “hydrolysis rate by α3ΔN mutant relative to wild-type yeast proteasome” value in data set [7] was “approximately ten-fold”. For the same molecule, the “competitive inhibition of hydrolysis of standard fluorogenic substrates” value in data set [8] is “could not competitively inhibit”.
As for “bKKQ20KK: Q20 sequence flanked by two lysine residues on each end and biotin on the α amino group (SEQ ID NO:9) (Biotin-KKQQQQQQQQQQQQQQQQQQQQKK)”, the “time to complete consumption of the peptide” value in data set [9] was ≤ 45 min.
On to rabbit 20S proteasomes, for which the “hydrolysis of bKKQ10KK and of standard fluorogenic peptide substrates” value in [10] is “Rabbit 20S proteasomes, when purified in their latent state, were inactive against bKKQ10KK (SEQ ID NO:8) (FIG. 1A) or against standard fluorogenic peptide substrates, unless PA28αβ, or 0.02% SDS was added”. Besides, in data set [11], the “decrease in the individual peptidase activities (fluorogenic substrates specific for each active site)” value is “Each inhibitor caused an 85%-95% decrease in the individual peptidase activities without significantly affecting the other two” and the “reduction of bKKQ10KK cleavage” value is “Treatment with Ac-YRLN-VS (SEQ ID NO:20) reduced bKKQ10KK (SEQ ID NO:8) cleavage by about 70%”.
